According to patent US20030105300A1, “Tumor targeted photodiagnostic-phototherapeutic agents” (MALLINCKRODT INC., priority 2001, published 2003):

How the values were obtained:
Parameters in all cases: species or system male Lewis rats
[1] = test system: DSL 6/A (pancreatic) tumor; assay: In vivo fluorescence imaging of tumor-bearing rats with indocyanine green (DSL 6/A); conditions: DSL 6/A tumor, left flank; 0.5 ml of 0.42 mg/ml ICG in saline, tail vein; images at 2 and 30 minutes
Source text: (§1) A non-invasive in vivo fluorescence imaging apparatus was employed to assess the efficacy of indocyanine green (ICG) in three different rat tumor cell lines of the inventive contrast agents developed for tumor detection in animal models. A LaserMax Inc. laser diode of nominal wavelength 780 nm and nominal power of 40 mW was used. The detector was a Princeton Instruments model RTE/CCD-1317-K/2 CCD camera with a Rodenstock 10 mm F2 lens (stock #542.032.002.20) attached. An 830 nm […] (CVI Laser Corp., part #F10-830-4-2) was mounted in front of the CCD input lens, such that only emitted fluorescent light from the contrast agent was imaged.
(§2) Three tumor cell lines, DSL 6/A (pancreatic), Dunning R3327-H (prostate), and CA20948 (pancreatic), which are rich in somatostatin (SST-2) receptors were induced into male Lewis rats by solid implant technique in the left flank area (Achilefu et al., Invest. Radiology, 2000, pp. 479-485). Palpable masses were detected nine days post implant.

[2] = test system: CA20948 (pancreatic) tumor; assay: In vivo fluorescence imaging of tumor-bearing rats with indocyanine green (CA20948)
Source text: as §1, §2

[3] = test system: Dunning R3327-H (prostate) tumor; assay: In vivo fluorescence imaging of tumor-bearing rats with indocyanine green (Dunning R3327-H); conditions: left flank, 0.5 ml of 0.42 mg/ml ICG in saline, tail vein, images at 2 and 30 minutes
Source text: as §1, §2

Q: Which “perfusion of the agent into the tumor (fluorescence images)” value (from here on “perfusion of the agent into the tumor”) [1] does the source give for CC1(C)C(/C=C/C=C/C=C/C=C2\N(CCCCS(=O)(=O)O)c3ccc4ccccc4c3C2(C)C)=[N+](CCCCS(=O)(=O)[O-])c2ccc3ccccc3c21 [ICG, indocyanine green] here?
A: The value was “slow perfusion of the agent into the tumor over time”.

Q: And the “non-specific localization into the tumor line” value ([2]; compared to the other two lines)?
A: Its value is “no non-specific localization”.

Q: What about the “perfusion of the agent into the tumor” value ([2]; left flank, 0.5 ml of 0.42 mg/ml ICG in saline, tail vein, images at 2 and 30 minutes) of the same molecule?
A: Its value is “only a slight and transient perfusion that was cleared after only 30 minutes post injection”.

Q: And the “perfusion of the agent into the tumor” value [3]?
A: Its value is “slow perfusion of the agent into the tumor over time”.
